In ChEMBL document CHEMBL1156605, “Discovery of dihydroquinoxalinone acetamides containing bicyclic amines as potent Bradykinin B1 receptor antagonists” (Bioorg Med Chem Lett, 2008) one finds IC50, microsomal CLint and Ki data, which are given here for 14 compounds.

Bounds are passed on as bounds.

For data set [1], the target named is T1, B1 bradykinin receptor (Homo sapiens, UniProt P46663).
T1 sequence (P46663 whole entry): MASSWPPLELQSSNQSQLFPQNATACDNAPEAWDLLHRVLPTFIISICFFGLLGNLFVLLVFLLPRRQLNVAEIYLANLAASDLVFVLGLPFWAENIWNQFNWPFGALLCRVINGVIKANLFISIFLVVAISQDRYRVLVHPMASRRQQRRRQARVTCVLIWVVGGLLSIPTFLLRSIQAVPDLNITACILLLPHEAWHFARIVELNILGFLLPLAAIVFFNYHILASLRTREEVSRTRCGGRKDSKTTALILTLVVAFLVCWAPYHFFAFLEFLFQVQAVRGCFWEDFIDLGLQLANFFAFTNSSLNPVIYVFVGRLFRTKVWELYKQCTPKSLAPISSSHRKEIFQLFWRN
As to the kind of experiment: Antagonist activity at human bradykinin B1 receptor expressed in CHO-D-/aequorin cells. It is filed as functional, cell-based.

A short description of data set [2]: Metabolic stability in human liver microsomes. The data set is classed as ADME, Microsome. The note with it: read-out: Stability.
For data set [3], the target named is T1, B1 bradykinin receptor. In words: Displacement of [3H]DAK from human bradykinin B1 receptor expressed in CHO-D-/aequorin cells by rapid filtration technique. It is filed as cell-based. Background: In a radioligand displacement assay an active substance lowers the binding of a labelled ligand.

In general, IC50 refers to the concentration that inhibits the measured activity by half. A low value points to greater potency in that assay. Broadly, the Ki is the equilibrium dissociation constant of an inhibitor or competing ligand from its target. Read a low Ki as tighter binding.

As to `O=C(C[C@@H]1C(=O)Nc2ccccc2N1S(=O)(=O)c1ccc(Cl)c(Cl)c1)NCCc1ccc(C2=NCCN2)cc1`, on B1 bradykinin receptor [1], the IC50 came out at 0.18 nM. For `O=C(C[C@@H]1C(=O)Nc2ccccc2N1S(=O)(=O)c1ccc(Cl)c(Cl)c1)N[C@@H]1CCOc2cc(CN3CCCCC3)ccc21`, the microsomal CLint in data set [2] is 389 µL/min/mg. Same read-out and setting: under `O=Cc1ccc2c(c1)OCC[C@H]2NC(=O)C[C@@H]1C(=O)Nc2ccccc2N1S(=O)(=O)c1ccc(Cl)c(Cl)c1` stands 407 µL/min/mg. Turning to `COc1ccccc1NC(=O)CC1C(=O)Nc2ccccc2N1S(=O)(=O)c1c(C)cc(C)cc1C` (stereo unspecified), the IC50 on B1 bradykinin receptor [1] is more than 40000 nM. This compound came in with a Ki on B1 bradykinin receptor [3] of 500 nM. Turning to `CC(C)CNCc1ccc2c(c1)OCC[C@H]2NC(=O)C[C@@H]1C(=O)Nc2ccccc2N1S(=O)(=O)c1ccc(Cl)c(Cl)c1`, the microsomal CLint in data set [2] amounted to 264 µL/min/mg. Still for that read-out and setting: the figure for `CNCc1ccc2c(c1)OCC[C@H]2NC(=O)C[C@@H]1C(=O)Nc2ccccc2N1S(=O)(=O)c1ccc(Cl)c(Cl)c1` is 107 µL/min/mg; for `CN(C)Cc1ccc2c(c1)OCC[C@H]2NC(=O)C[C@@H]1C(=O)Nc2ccccc2N1S(=O)(=O)c1ccc(Cl)c(Cl)c1` it is 208 µL/min/mg; for `NCc1ccc2c(c1)OCC[C@H]2NC(=O)C[C@@H]1C(=O)Nc2ccccc2N1S(=O)(=O)c1ccc(Cl)c(Cl)c1` it is 127 µL/min/mg. Same read-out and setting: the figure for `O=C(C[C@@H]1C(=O)Nc2ccccc2N1S(=O)(=O)c1ccccc1)N[C@@H]1CCOc2cc(CN3CCCCC3)ccc21` is 76 µL/min/mg. In the case of `CC(C)(C)NCc1ccc2c(c1)OCC[C@H]2NC(=O)C[C@@H]1C(=O)Nc2ccccc2N1S(=O)(=O)c1ccccc1`, the microsomal CLint in data set [2] was found to be 26 µL/min/mg. On B1 bradykinin receptor [1], this compound gave an IC50 of 0.37 nM. Also, the Ki at B1 bradykinin receptor [3] is 1.8 nM. As to `O=C(C[C@@H]1C(=O)Nc2ccccc2N1S(=O)(=O)c1ccc(Cl)c(Cl)c1)N[C@@H]1CCOc2cc(CO)ccc21`, the microsomal CLint in data set [2] is 264 µL/min/mg. As for `CC(C)(C)NCc1ccc2c(c1)OCC[C@H]2NC(=O)C[C@@H]1C(=O)Nc2ccccc2N1S(=O)(=O)c1ccc(Cl)c(Cl)c1`, the microsomal CLint in data set [2] is 174 µL/min/mg. On B1 bradykinin receptor [1], the half-maximal inhibitory concentration (IC50) stood at 1.7 nM. On B1 bradykinin receptor [3], this compound registered a Ki of 1.1 nM.

`CC(C)NCc1ccc2c(c1)OCC[C@H]2NC(=O)C[C@@H]1C(=O)Nc2ccccc2N1S(=O)(=O)c1ccc(Cl)c(Cl)c1`: the microsomal CLint in data set [2] was 156 µL/min/mg. On B1 bradykinin receptor [1], the IC50 was determined as 0.86 nM. In addition, affinity on B1 bradykinin receptor [3] was put at a Ki of 0.7 nM. `Cc1ccc(S(=O)(=O)N2c3ccccc3NC(=O)[C@H]2CC(=O)N[C@@H]2CCOc3cc(CN4CCCCC4)ccc32)cc1`: the microsomal CLint in data set [2] was 128 µL/min/mg.
